Data from patent US9035056B2, “Pyrido[4,3-b]indole and pyrido[3,4-b]indole derivatives and methods of use” (Medivation Technologies, Inc., priority 2011, dated 2015).

How the values were obtained:
[1] = system: New Zealand White rabbits; conditions: conscious rabbits, intravenous, positive control, before the blood pressure reversed back
Experimental: Four adult New Zealand White rabbits of both sexes are chosen for these studies. The experiments are conducted in accordance with the Australian code of Practice for the Care and use of Animals for Scientific Purposes and approval is sought from the Animal Experimental Committee of Alfred Hospital, Baker IDI, Melbourne, Australia. The conscious rabbits are implanted with an intravenous catheter in marginal ear vein or by centrally by […] catheter interfaced to a pressure transducer connected to a suitable recorder. To unveil peripheral effects of test compound, two sets of acute studies are conducted in rabbits. In the first set of studies, test compound is dosed to rabbit intravenously for a dose-response study with cumulative doses starting 0 (Ringer's Lock solution as a vehicle), 0.1, 0.3, 1, 3.2 and 10 mg/kg where each dose is tested on a separate day. A single intravenous bolus dose at 3 mg/kg is given and a time-course study is conducted in the second set of studies. Systolic, […], mean and […] blood pressures are recorded in both the studies.

[2] = target: T1, human recombinant serotonin (5-Hydroxytryptamine) 5-HT2C receptor (Homo sapiens, UniProt P28335); assay: Serotonin 5-HT2C radioligand binding ([3H]Mesulergine); conditions: 0.1 μM compound; read-out: Percentage inhibition of ligand binding, Serotonin 5-HT2C
T1 construct: expressed in transfected cells; host or cells: CHO-K1
T1 sequence (P28335 33-458): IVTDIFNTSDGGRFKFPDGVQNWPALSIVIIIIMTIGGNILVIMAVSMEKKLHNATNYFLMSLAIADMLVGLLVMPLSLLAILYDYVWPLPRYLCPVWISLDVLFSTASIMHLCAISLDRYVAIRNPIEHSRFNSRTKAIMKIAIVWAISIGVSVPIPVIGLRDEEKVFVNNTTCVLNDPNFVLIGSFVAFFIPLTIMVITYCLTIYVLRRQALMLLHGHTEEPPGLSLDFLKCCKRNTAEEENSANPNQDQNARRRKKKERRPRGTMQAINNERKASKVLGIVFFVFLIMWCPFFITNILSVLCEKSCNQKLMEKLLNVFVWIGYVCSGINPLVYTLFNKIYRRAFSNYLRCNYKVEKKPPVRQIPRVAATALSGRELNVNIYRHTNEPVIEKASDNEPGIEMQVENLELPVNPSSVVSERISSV
Experimental: To evaluate in radioligand binding assays the activity of compounds of the invention, human recombinant serotonin (5-Hydroxytryptamine) 5-HT2C receptor expressed in Chinese hamster ovary (CHO) K1 cells (Wolf, W. et al, J. Neurochem. 69:1449, 1997) in a modified Tris-HCl buffer (50 mM Tris-HCl, pH 7.4, 0.1% Ascorbic Acid, 10 μM Pargyline) was used. Compounds of the invention were incubated with 1 nM [^3H]Mesulergine for 60 min at 25° C. Non-specific binding was estimated in the presence of 1 μM Mianserin. Receptor proteins were filtered and washed, the filters were then counted to determine [^3H]Mesulergine specifically bound. Compounds were screened at 1 μM or lower, using 1% DMSO as vehicle. Biochemical assay results are presented as the percent inhibition of specific binding in Table 5.

[3] = target: T2, human recombinant dopamine D2L receptor (Homo sapiens, UniProt P14416); assay: Dopamine D2L radioligand binding ([3H]Spiperone); conditions: 1 μM compound; read-out: Percentage inhibition of ligand binding, Dopamine D2L
T2 construct: expressed in transfected cells; host or cells: CHO
T2 sequence (P14416 whole entry): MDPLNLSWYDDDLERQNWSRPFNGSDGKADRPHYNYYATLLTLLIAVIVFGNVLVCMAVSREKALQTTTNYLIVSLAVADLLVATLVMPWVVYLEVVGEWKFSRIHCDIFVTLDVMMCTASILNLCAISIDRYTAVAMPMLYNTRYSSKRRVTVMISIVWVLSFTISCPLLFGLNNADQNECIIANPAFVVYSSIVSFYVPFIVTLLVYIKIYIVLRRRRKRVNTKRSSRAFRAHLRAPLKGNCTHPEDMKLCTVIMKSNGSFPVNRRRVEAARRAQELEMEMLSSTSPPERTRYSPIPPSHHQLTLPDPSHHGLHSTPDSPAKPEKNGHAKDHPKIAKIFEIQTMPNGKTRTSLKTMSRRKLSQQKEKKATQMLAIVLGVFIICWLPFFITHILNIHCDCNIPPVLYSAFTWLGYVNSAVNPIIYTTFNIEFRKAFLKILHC
Experimental: To evaluate in radioligand binding assays the activity of compounds of the invention, human recombinant dopamine D2L receptor expressed in Chinese hamster ovary (CHO) cells (Grandy, D. et al, Proc. Natl. Acad. Sci. USA. 86:9762, 1989; Hayes, G. et al, Mol. Endocrinol. 6:920, 1992) in a modified Tris-HCl buffer (50 mM Tris-HCl, pH 7.4, 1.4 mM Ascorbic Acid, 0.001% BSA, 150 mM NaCl) was used. Compounds of the invention were incubated with 0.16 nM [^3H]Spiperone for 120 min at 25° C. Non-specific binding was estimated in the presence of 10 μM Haloperidol. Receptor proteins were filtered and washed, the filters were then counted to determine [^3H]Spiperone specifically bound. Compounds were screened at 1 μM or lower, using 1% DMSO as vehicle. Biochemical assay results are presented as the percent inhibition of specific binding in Table 4.

[4] = target: T3, human recombinant serotonin (5-Hydroxytryptamine) 5-HT6 receptor (Homo sapiens, UniProt P50406); assay: Serotonin 5-HT6 radioligand binding ([3H]LSD); conditions: 0.1 μM compound; read-out: Percentage inhibition of ligand binding, Serotonin 5-HT6
T3 construct: expressed in transfected cells; host or cells: HeLa
T3 sequence (P50406 whole entry): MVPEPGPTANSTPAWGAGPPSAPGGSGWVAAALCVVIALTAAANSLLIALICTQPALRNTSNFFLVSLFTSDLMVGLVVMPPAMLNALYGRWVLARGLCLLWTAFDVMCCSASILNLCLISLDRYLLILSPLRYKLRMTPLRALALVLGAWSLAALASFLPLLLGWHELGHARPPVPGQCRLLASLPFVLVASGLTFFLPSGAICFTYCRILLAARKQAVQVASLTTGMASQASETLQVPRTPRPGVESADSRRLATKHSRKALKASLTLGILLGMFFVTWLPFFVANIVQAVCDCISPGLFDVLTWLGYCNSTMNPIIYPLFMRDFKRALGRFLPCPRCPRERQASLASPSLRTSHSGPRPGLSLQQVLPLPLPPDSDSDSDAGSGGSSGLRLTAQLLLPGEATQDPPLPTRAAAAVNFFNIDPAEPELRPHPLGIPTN
Experimental: To evaluate in radioligand binding assays the activity of compounds of the invention, human recombinant serotonin (5-Hydroxytryptamine) 5-HT6 receptor expressed in human HeLa cells (Monsma, F. Jr. et al, Mol. Pharmacol. 43:320, 1993) in a modified Tris-HCl buffer (50 mM Tris-HCl, pH 7.4, 150 mM NaCl, 2 mM Ascorbic Acid, 0.001% BSA) was used. Compounds of the invention were incubated with 1.5 nM [3H]Lysergic acid diethylamide (LSD) for 120 min at 37° C. Non-specific binding was estimated in the presence of 5 μM Serotonin (5-HT). Receptor proteins were filtered and washed, the filters were then counted to determine [3H]LSD specifically bound. Compounds were screened at 1 μM or lower, using 1% DMSO as vehicle. Biochemical assay results are presented as the percent inhibition of specific binding in Table 5.

[5] = target: T4, human recombinant serotonin (5-Hydroxytryptamine) 5-HT2A receptor (Homo sapiens, UniProt P28223); assay: Serotonin 5-HT2A radioligand binding ([3H]Ketanserin); conditions: 0.1 μM compound; read-out: Percentage inhibition of ligand binding, Serotonin 5-HT2A
T4 construct: expressed in transfected cells; host or cells: CHO-K1
T4 sequence (P28223 whole entry): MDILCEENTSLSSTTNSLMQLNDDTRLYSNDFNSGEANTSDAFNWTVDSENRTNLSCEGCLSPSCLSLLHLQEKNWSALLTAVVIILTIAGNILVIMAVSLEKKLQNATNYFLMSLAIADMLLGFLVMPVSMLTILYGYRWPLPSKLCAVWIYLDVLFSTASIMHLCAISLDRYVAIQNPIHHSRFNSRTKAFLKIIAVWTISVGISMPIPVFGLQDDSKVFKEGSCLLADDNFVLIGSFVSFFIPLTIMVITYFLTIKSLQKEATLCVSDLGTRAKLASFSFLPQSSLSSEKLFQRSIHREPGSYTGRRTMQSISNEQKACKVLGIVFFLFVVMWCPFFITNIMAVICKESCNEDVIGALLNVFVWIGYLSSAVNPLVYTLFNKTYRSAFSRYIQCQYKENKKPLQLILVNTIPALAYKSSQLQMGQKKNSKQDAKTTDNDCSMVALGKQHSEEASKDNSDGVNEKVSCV
Experimental: To evaluate in radioligand binding assays the activity of compounds of the invention, human recombinant serotonin (5-Hydroxytryptamine) 5-HT2A receptor expressed in Chinese hamster ovary (CHO) K1 cells (Bonhaus, D. et al, Br. J. Pharmacol. 115:622, 1995; Saucier, C. et al, J. Neurochem. 68:1998, 1997) in a 50 mM Tris-HCl buffer, pH 7.4, was used. Compounds of the invention were incubated with 0.5 nM [^3H]Ketanserin for 60 min at 25° C. Non-specific binding was estimated in the presence of 1 μM Mianserin. Receptor proteins were filtered and washed, the filters were then counted to determine [^3H]Ketanserin specifically bound. Compounds were screened at 1 μM or lower, using 1% DMSO as vehicle. Biochemical assay results are presented as the percent inhibition of specific binding in Table 5.

[6] = target: T5, human recombinant serotonin (5-Hydroxytryptamine) 5-HT7 receptor (Homo sapiens, UniProt P34969); assay: Serotonin 5-HT7 radioligand binding ([3H]LSD); conditions: 0.1 μM compound; read-out: Percentage inhibition of ligand binding, Serotonin 5-HT7
T5 construct: expressed in transfected cells; host or cells: CHO
T5 sequence (P34969 whole entry): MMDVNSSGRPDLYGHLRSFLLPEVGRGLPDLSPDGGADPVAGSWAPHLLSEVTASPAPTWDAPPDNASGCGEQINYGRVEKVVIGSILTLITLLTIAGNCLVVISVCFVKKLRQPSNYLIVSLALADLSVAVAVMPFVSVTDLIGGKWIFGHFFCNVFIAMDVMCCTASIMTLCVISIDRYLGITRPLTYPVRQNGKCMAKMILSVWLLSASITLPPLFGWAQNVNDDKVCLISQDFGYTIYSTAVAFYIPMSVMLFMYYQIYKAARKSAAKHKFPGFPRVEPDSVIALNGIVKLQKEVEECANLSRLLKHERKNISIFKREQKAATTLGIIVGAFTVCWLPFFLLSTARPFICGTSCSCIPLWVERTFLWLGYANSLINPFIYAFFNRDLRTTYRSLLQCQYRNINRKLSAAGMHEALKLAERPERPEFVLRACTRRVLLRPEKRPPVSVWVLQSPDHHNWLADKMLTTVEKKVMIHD
Experimental: To evaluate in radioligand binding assays the activity of compounds of the invention, human recombinant serotonin (5-Hydroxytryptamine) 5-HT7 receptor expressed in Chinese hamster ovary (CHO) cells (Roth, B. et al, J. Pharmacol. Exp. Ther. 268:1403, 1994; Shen, Y. et al, J. Biol. Chem. 268:18200, 1993) in a modified Tris-HCl buffer (50 mM Tris-HCl, pH 7.4, 10 mM MgCl2, 0.5 mM EDTA) was used. Compounds of invention were incubated with 5.5 nM [^3H] Lysergic acid diethylamide (LSD) for 2 h at 25° C. Non-specific binding was estimated in the presence of 10 μM Serotonin (5-HT). Receptor proteins were filtered and washed, the filters were then counted to determine [^3H]LSD specifically bound. Compounds were screened at 1 μM or lower, using 1% DMSO as vehicle. Biochemical assay results are presented as the percent inhibition of specific binding in Table 5.

[7] = target: T6, human recombinant histamine H1 receptor (Homo sapiens, UniProt P35367); assay: Histamine H1 radioligand binding ([3H]Pyrilamine); conditions: 1 μM compound; read-out: Binding data (Percentage inhibition) Histamine H1 (1 μM)
T6 construct: expressed in transfected cells; host or cells: CHO-K1
T6 sequence (P35367 whole entry): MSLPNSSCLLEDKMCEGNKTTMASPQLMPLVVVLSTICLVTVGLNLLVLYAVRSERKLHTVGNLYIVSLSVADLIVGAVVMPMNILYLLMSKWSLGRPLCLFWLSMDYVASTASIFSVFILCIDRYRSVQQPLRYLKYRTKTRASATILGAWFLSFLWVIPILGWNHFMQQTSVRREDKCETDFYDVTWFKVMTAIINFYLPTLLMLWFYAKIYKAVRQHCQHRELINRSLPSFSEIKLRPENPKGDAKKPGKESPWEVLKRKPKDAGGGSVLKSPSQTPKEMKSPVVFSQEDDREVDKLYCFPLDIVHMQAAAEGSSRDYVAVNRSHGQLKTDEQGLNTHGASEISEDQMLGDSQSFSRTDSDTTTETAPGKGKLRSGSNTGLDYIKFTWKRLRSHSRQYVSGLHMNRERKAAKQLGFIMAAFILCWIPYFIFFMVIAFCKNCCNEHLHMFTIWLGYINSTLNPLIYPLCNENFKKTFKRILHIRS
Experimental: To evaluate in radioligand binding assays the activity of compounds of the invention, human recombinant histamine H1 receptor expressed in Chinese hamster ovary (CHO) K1 cells (De Backer, M. et al, Biochem. Biophys. Res. Comm. 197(3):1601, 1993) in a modified Tris-HCl buffer (50 mM Tris-HCl, pH 7.4, 2 mM MgCl2, 100 mM NaCl, 250 mM Sucrose) was used. Compounds of the invention were incubated with 1.2 nM [^3H]Pyrilamine for 180 min at 25° C. Non-specific binding was estimated in the presence of 1 μM Pyrilamine. Receptor proteins were filtered and washed, the filters were then counted to determine [^3H]Pyrilamine specifically bound. Compounds were screened at 1 μM or lower, using 1% DMSO as vehicle. Biochemical assay results are presented as the percent inhibition of specific binding in Table 3.

SMILES	maximum drop of arterial blood pressure [1]	inhibition at 0.1 µM [2]	inhibition at 1 µM [3]	inhibition at 0.1 µM [4]	inhibition at 0.1 µM [5]	inhibition at 0.1 µM [6]	inhibition at 1 µM [7]
Clc1cccc(Cl)c1N=C1NCCN1 [Clonidine]	−6 mmHg						
CN1CCc2c(c3cc(Cl)ccc3n2C=C2CCCCC2)C1 [i-1]		98%	93%	91%	94%	81%	100%
